From patent US5118392A, “Separation of trichloroethylene from a butyl alcohol by extractive distillation” (priority 1991, dated 1992) come the findings set out here.

What all share (format): physicochemical
Data set [1] in a line: Vapor-liquid equilibrium still, trichloroethylene-isobutanol azeotrope with extractive distillation agent. Conditions: trichloroethylene from isobutanol, Table 5. From the text:
(§1) The data in Tables 2, 3, 5, 7, 8, 10 and 11 was obtained in a vapor-liquid equilibrium still. In every case, the starting mixture was the trichloroethylene-butanol azeotrope. The relative volatilities are listed for each of the agents.
Seventy grams of the trichloroethylene-isobutanol azeotrope and 30 grams of n-octanol were charged to the vapor-liquid equilibrium still and refluxed for five hours.

Data set [2] in a line: Vapor-liquid equilibrium still, trichloroethylene-2-butanol azeotrope with extractive distillation agent.
Source text: as §1
Seventy grams of the trichloroethylene-2-butanol azeotrope and 30 grams of 2-methyl-1-pentanol were charged to the vapor-liquid equilibrium still and refluxed for two hours.

A short description of data set [3]: Glass perforated plate rectification column (7.3 theoretical plates), trichloroethylene / 2-butanol. From the text: The overhead analysis was 98.2% trichloroethylene, 1.8% 2-butanol and the bottoms analysis was 65.6% trichloroethylene, 34.4% 2-butanol. This gives an average relative volatility of 1.59 for each theoretical plate.
Data set [4] can be described thus: Vapor-liquid equilibrium still, trichloroethylene-n-butanol azeotrope with extractive distillation agent.
Data set [5] can be described thus: Glass perforated plate rectification column (7.3 theoretical plates), trichloroethylene / n-butanol. As to conditions: 2 hrs. An excerpt: Dimethylsulfoxide gave a relative volatility of 1.28 after two hours of operation.
A solution comprising 300 grams of trichloroethylene and 15 grams of n-butanol was placed in the stillpot of a 7.3 theoretical plate glass perforated plate rectification column. […] After two hours operation, overhead and bottoms samples were collected and analysed. The overhead analysis was 98.2% trichloroethylene, 1.8% n-butanol and the bottoms analysis was 90.1% trichloroethylene, 9.9% n-butanol. This gives an average relative volatility of 1.28 for each theoretical plate.

Assay in data set [6]: as above
As to conditions: 1 hr.

Where [7] appears, read: Example 1, refluxed seven hours.

`CCCC(C)CO` (stereo not drawn) [2-Methyl-1-pentanol]: the “Relative Volatility” value is 2.2 in data set [1]; 1.75 in data set [2] (Example 5: 70 g azeotrope, 30 g agent, refluxed two hours); 1.6 in data set [2] (trichloroethylene from 2-butanol, Table 7). Besides, the “liquid composition, 2-butanol” value in data set [2] (Example 5, refluxed two hours) came out at 19.5%. For the same molecule, the “liquid composition, trichloroethylene” value in data set [2] (Example 5, refluxed two hours) is listed as 80.5%. Also, in data set [2] (Example 5, refluxed two hours), the “vapor composition, 2-butanol” value was 11.9%. In data set [2] (Example 5, refluxed two hours), the “vapor composition, trichloroethylene” value was 88.1%. The “Relative Volatility (per theoretical plate)” value in data set [3] (1 hr) was found to be 1.49. In addition, the “Relative Volatility (average, per theoretical plate)” value in data set [3] (2 hrs) came to 1.59. The “Weight % 2-Butanol” value in data set [3] (bottoms, 1 hr) was found to be 30.7%; in data set [3] (bottoms, 2 hrs), 34.4%; in data set [3] (overhead, 1 hr), 2.4%; in data set [3] (overhead, 2 hrs), 1.8%. Besides, the “Weight % C2 H Cl3” value came out at 69.3% in data set [3] (bottoms, 1 hr); 65.6% in data set [3] (bottoms, 2 hrs); 97.6% in data set [3] (overhead, 1 hr); 98.2% in data set [3] (overhead, 2 hrs).

Regarding `C[S+](C)[O-]` [Dimethylsulfoxide], in data set [4] (setting [7]), the “liquid composition, n-butanol” value is 2.9%; the “liquid composition, trichloroethylene” value came to 97.1%; the “vapor composition, n-butanol” value was 2.3%; the “vapor composition, trichloroethylene” value is 97.7%. Besides, the Relative Volatility in data set [4] (Example 1: 60 g azeotrope, 30 g agent, refluxed seven hours) is 1.25. In data set [4] (trichloroethylene from n-butanol, Table 2), the “Relative Volatility” value was found to be 1.3. Further, the “Relative Volatility (average, per theoretical plate)” value in data set [5] is on record as 1.28. Besides, in data set [5] (bottoms), the “Weight % C2 H Cl3” value is recorded as 90.1% and the “Weight % n-Butanol” value was determined as 9.9%. Moreover, in data set [5] (overhead), the “Weight % C2 H Cl3” value is on record as 98.2% and the “Weight % n-Butanol” value was 1.8%. Also, in data set [6], the “Relative Volatility (per theoretical plate)” value came out at 1.22. In data set [6] (bottoms), the “Weight % C2 H Cl3” value is reported as 88.2% and the “Weight % n-Butanol” value stood at 11.8%. Also, in data set [6] (overhead), the “Weight % C2 H Cl3” value is on record as 96.9% and the “Weight % n-Butanol” value is recorded as 3.1%.
